Experiments:
3T3-L1 cells = assay: Adipogenesis assay (in vitro), Nile Red lipid staining; assay type: cell-based; conditions: Mus musculus, mean values of at least 2 independent tests, read-out: Adipogenesis inhibition IC50
Experimental: 3T3-L1 cells (mouse embryonic fibroblast-like adipocyte cell line) are seeded in a 48-well plate with collagen I-coating in a concentration of 3×10^4 cells/well. After 72 h cultivation at 37° C. and 5% CO2 in DMEM (Dulbecco's Modified Eagle Medium), enriched with 10% calf serum, various concentrations of the test substances in DMEM, enriched with 10% foetal calf serum and to which are added 1 μg/ml insulin, 0.25 μM dexamethasone and 0.5 mM IBMX (3-isobutyl-1-methylxanthine), are added and incubated for a further 48 h. A media change takes place, in that DMEM, enriched with 10% foetal calf serum and with 1 μg/ml insulin added, are applied. After renewed cultivation for 48 h, a further media change takes place, in which DMEM, enriched with 10% foetal calf serum, is applied.
After a further incubation for 72 h, the intracellularly stored lipids are quantified as a measure for the differentiation of the cells by measuring the fluorescence after staining of the lipids with the fluorescent dye Nile Red.
The inhibition of the adipogenesis in the presence of the test substances is calculated according to the following equation:
[formula] wherein RFU test substance=relative fluorescent units of the wells with test substance and with cells RFU control=relative fluorescent units of the wells without test substance, but with cells RFU control without cells=relative fluorescent units of the wells without test substance and without cells The IC50 is calculated from the adipogenesis inhibition [%] in a series of dilutions of tested samples. This is the concentration at which the adipogenesis is 50% inhibited.

[1] = tested on: ex vivo pig skin model including subcutis fat layer; assay: Lipolysis assay, ex vivo pig skin model, free glycerol release; assay type: cell-based; conditions: conc. 0.1% in cosmetic test preparation, topical on ex vivo pig skin, 24 hours, versus placebo
Source text: Full thickness pig skin patches (pig skin model including subcutis fat layer as described in EP 1 939 279) are excised from the dorsal part of young pig slaughtered for meat. The ex vivo pig skin models have a size of 7×3 mm (diameter×height). They are placed on a titanium grid dipped in culture medium. On top of the skin samples formulations are applied. In parallel to a cosmetic test preparation containing one or more compounds of formula (I) a placebo preparation without any compound of formula (I) is applied as reference (blank).
After 24 hours of incubation, the quantification of free glycerol in the medium surrounding the pig skin models was performed. The glycerol is released by the cells after hydrolysis of triglycerides in the cells of the adipose tissue and is a measure of the lipolysis of the pig skin models. The quantification of the free glycerol is carried out based on an enzymatic method with a free glycerol reagent.
Cosmetic Test Preparation:
Phases A and B are heated to 70° C. separately. Pemulen TR1 as well as Ultrez-21 are dispersed in phase B when heated to 70° C. Phase B/C is added to phase A by mixing with an Ultra Turrax, followed by emulsifying. Phase D is slowly added to phase A/B/C using a paddle mixer and a pH 5.5-6 is adjusted. The formulation is cooled down while mixing with a paddle mixer. Phase E is prepared by dissolving one or more compounds of formula (I) in Hydrolite-5. Subsequently, phase E is added to the mixture of phase A-D.
The stimulation of the lipolysis in the presence of test substances is calculated according to the following equation:
[formula] wherein A test substance=absorption of the wells with medium of ex vivo skin models, on which the formulation containing the test substance was applied A placebo=absorption of the wells with medium of ex vivo skin models, on which the placebo without test substance was applied

SMILES	IC50 (3T3-L1 cells) [µM]	Stimulation of lipolysis [1] [%]
CCCCNC(=O)OC1CCCCC1C(C)C (stereo not drawn) [BIO1841, Butyl-carbamic acid 2-isopropyl-cyclohexyl ester]	59	25
CCC(C)NC(=O)OC1CCCC(C)C1C (stereo not drawn) [BIO1845, sec-Butyl-carbamic acid 2,3-dimethyl-cyclohexyl ester]	96	29
CCCCNC(=O)OC1C(C)CCC(C)C1C (stereo not drawn) [BIO1617, Butyl-carbamic acid 2,3,6-trimethyl-cyclohexyl ester]	79	21
